Laboratory results as given in patent publication US20120059029A1 (Elan Pharmaceuticals, Inc., priority 2010, published 2012).

Assays:
Assay type in all cases: cell-based
[1] = biological target: T1, activated α4β1 on Jurkat cells (Homo sapiens, UniProt P05556+P13612); assay: α4β1-FN capture assay in human serum (Jurkat cells, FACS); conditions: 50% human serum
T1 construct: Jurkat™ lymphoma T cells express high levels of α4β1 integrin; endogenous in cells; host or cells: Jurkat cells
Procedure: The α4β1 receptors on Jurkat™ cell surfaces can capture, in solution, the endogenous FN present in serum.
An equal volume of assay buffer containing 50% human serum, the antibody 15/7 (2×, 20 μg/ml) and MnCl2 (2×, 3 mM) was then added to each well. These reagents served as α4 integrin activating agents, allowing the receptor to capture FN from the serum. The plate was then incubated for another 30 minutes at RT.

[2] = biological target: T2, α4β1 (Homo sapiens, UniProt P05556+P13612); assay: α4β1-dependent Jurkat cell adhesion to human fibronectin; conditions: TS2/16-activated α4β1, anti-α5 antibody present; read-out: EC50, Jurkat adhesion to FN
T2 construct: Jurkat™ lymphoma T cells express high levels of α4β1 integrin; endogenous in cells; host or cells: Jurkat cells
T2 sequence (P13612 34-1032): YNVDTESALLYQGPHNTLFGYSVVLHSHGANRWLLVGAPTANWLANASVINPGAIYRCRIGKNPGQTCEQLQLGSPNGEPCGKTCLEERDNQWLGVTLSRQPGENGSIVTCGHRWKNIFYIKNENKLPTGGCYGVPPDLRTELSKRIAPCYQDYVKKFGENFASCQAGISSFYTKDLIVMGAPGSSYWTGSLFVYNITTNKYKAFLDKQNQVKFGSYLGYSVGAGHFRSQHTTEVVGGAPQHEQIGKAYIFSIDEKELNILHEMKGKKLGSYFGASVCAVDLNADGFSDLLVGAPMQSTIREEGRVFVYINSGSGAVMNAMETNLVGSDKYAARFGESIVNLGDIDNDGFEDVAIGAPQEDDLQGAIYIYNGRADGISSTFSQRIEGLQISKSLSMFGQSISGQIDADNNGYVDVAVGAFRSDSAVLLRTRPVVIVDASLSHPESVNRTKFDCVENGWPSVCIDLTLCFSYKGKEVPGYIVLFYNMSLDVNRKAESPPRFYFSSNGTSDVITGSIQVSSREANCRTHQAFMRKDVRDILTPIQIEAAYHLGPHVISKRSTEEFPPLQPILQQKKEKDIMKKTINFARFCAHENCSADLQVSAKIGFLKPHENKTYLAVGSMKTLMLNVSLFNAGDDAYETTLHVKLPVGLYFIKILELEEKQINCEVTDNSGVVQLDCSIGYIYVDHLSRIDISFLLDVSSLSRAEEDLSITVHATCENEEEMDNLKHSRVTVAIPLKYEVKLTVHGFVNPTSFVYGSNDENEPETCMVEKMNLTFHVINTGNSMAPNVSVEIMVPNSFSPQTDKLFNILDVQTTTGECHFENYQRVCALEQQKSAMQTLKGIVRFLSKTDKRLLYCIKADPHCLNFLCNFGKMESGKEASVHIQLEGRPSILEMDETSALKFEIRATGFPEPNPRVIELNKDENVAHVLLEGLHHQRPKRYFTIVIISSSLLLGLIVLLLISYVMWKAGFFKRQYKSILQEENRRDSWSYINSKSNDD
T2 sequence (P05556 21-798): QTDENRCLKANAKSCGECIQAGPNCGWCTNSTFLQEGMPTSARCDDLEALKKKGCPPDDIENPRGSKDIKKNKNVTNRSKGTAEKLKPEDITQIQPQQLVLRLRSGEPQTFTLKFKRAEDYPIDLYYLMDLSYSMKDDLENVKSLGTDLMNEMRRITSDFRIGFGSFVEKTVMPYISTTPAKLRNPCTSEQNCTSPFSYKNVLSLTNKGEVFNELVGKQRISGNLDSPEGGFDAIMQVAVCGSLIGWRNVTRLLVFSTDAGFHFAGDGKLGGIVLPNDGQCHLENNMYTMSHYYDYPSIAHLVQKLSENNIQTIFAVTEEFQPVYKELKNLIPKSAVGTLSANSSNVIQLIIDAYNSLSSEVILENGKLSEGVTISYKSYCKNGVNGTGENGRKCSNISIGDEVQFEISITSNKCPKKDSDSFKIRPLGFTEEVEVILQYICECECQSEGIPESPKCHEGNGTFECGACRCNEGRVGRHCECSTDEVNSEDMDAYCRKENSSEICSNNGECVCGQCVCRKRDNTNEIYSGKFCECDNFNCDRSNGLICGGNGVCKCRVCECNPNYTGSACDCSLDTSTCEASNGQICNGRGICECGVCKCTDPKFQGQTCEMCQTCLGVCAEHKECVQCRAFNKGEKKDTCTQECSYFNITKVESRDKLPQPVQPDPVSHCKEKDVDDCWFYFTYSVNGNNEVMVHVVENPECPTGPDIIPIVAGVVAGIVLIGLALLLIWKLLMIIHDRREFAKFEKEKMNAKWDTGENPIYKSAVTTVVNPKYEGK
Procedure: Jurkat™ cells adhere to fibronectin (FN) in an […] fashion.
5 μg/mL of an inhibitory antibody against α5 integrin (BD Pharmingen, Franklin Lakes, N.J.) is added to the buffer to prevent α5-dependent adhesion to FN.

[3] = biological target: T2, α4β1; assay: α4β1-dependent Jurkat adhesion to rs-hu-VCAM-1; conditions: read-out: EC50, adhesion of Jurkat cells to human VCAM-1
Text: Jurkat™ lymphoma T cells express high levels of α4β1 integrin and strongly adhere to VCAM-1 in an α4 integrin-dependent fashion.

T1 sequence (P13612 34-1032): as the sequence (P13612 34-1032) above
T1 sequence (P05556 21-798): as the sequence (P05556 21-798) above

CC1(C)SCN(S(=O)(=O)c2cccnc2)[C@@H]1C(=O)N[C@@H](Cc1ccc(-n2c(=O)[nH]c3cccnc32)cc1)C(=O)O
fold less potent than Formula (I), FN capture [1]: 2.6 fold
EC50 [2]: 0.1 nM
EC50 [3]: 11.6 nM
